Measured values published in patent US20050159345A1 (Boehringer Ingelheim International GmbH, priority 2002, published 2005).
pKi: −log10 of the molar value.

Legend:
Type in all cases: biochemical
[1] = target: T1, HCV genotype 3a NS3-NS4A protease (UniProt Q81258); experiment: Inhibition constant (Ki) determination, genotype 3a; details: read-out: Ki HCV genotype 3a
T1 construct: fused on or other part: 28 extra N-terminal residues with a hexahistidine tag and an rTEV cleavage site
T1 sequence (Q81258 1033-1663): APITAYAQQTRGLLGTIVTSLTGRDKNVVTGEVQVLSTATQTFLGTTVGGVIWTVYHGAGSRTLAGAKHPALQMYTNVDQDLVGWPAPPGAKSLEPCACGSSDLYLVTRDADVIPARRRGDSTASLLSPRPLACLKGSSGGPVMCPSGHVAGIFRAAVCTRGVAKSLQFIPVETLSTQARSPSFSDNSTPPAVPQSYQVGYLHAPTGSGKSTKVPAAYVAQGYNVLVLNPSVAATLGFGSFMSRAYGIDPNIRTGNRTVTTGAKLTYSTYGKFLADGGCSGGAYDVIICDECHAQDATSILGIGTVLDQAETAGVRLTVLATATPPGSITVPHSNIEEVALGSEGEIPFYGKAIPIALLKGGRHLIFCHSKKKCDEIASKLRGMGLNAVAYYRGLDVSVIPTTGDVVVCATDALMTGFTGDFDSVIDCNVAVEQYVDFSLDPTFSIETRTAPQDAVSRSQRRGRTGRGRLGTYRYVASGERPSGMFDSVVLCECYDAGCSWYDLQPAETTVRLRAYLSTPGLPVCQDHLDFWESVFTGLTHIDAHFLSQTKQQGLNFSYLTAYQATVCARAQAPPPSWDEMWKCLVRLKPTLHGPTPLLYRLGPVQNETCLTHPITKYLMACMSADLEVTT

[2] = target: T2, HCV genotype 2a-c NS3-NS4A protease (UniProt P26660); experiment: Inhibition constant (Ki) determination, genotype 2a-c; details: read-out: Ki HCV genotype 2a-c
T2 sequence (P26660 1031-1661): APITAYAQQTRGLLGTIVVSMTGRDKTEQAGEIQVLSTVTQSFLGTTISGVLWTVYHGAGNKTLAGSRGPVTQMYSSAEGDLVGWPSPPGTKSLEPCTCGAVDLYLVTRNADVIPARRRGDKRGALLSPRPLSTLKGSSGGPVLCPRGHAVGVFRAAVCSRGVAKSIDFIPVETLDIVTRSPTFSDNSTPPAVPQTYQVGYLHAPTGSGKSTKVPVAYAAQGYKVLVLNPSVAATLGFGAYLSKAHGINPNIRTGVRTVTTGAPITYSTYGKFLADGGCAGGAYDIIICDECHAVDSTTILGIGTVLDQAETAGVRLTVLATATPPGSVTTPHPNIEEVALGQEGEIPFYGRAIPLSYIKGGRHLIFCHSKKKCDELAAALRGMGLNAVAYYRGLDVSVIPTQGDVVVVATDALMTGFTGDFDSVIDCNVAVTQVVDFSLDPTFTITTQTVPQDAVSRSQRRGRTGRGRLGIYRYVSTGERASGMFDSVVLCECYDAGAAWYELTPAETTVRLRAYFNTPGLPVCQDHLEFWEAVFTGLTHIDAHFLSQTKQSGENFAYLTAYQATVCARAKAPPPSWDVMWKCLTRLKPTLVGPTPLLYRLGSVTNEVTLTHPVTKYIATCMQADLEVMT

[3] = target: T3, HCV genotype 2b NS3-NS4A protease (UniProt P26661); experiment: Inhibition constant (Ki) determination, genotype 2b; details: read-out: Ki HCV genotype 2b
T3 construct: fused on or other part: 28 extra N-terminal residues with a hexahistidine tag and an rTEV cleavage site
T3 sequence (P26661 1031-1661): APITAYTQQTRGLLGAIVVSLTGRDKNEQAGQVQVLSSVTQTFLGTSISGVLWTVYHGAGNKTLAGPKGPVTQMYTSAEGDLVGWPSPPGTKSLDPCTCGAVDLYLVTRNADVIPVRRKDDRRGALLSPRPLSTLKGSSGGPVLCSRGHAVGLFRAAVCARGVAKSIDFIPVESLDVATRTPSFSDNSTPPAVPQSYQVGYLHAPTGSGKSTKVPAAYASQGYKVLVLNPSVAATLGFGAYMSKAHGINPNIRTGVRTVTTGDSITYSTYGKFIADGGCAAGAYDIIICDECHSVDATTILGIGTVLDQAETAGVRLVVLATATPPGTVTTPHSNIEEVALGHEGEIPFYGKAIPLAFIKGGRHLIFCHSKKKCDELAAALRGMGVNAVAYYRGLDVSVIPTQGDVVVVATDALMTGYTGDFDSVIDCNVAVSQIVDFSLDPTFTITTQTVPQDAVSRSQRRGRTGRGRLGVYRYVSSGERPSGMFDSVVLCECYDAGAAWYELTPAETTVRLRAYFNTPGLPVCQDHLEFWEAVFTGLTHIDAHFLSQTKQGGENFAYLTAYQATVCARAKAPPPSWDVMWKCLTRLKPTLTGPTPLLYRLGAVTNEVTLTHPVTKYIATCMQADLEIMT

COc1ccc2c(O[C@@H]3C[C@H]4C(=O)N[C@]5(C(=O)O)CC5/C=C\CCCCC[C@H](NC(=O)OC5CCCC5)C(=O)N4C3)cc(-c3csc(NC(C)C)n3)nc2c1 (stereo partly drawn) [IV]
pKi [1]: 7.05
pKi [2]: 7.07
pKi [3]: 7.08
